Experimental findings from patent US9776972B2, “Pyrazole derivatives as arginine methyltransferase inhibitors and uses thereof” (priority 2013, dated 2017) are described below.

Assay [1] deals with mono-methyl arginine in RKO cells. Put plainly: RKO Methylation Assay, In Cell Western (ICW) for mono-methyl arginine and DNA content. It is filed as cell-based. As to conditions: Homo sapiens, RKO, 72 h. The procedure, abridged: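 RKO cells treated with compound for 72 hours at 37 °C, then methanol-fixed and stained overnight at 4 °C with anti-mono-methyl arginine antibody, plus DRAQ5 for DNA. Signal ratio from 700 and 800 nm infrared scans normalized to DMSO (minimum) and 20 μM reference compound (maximum); EC30 from triplicate curves.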

In the next assay the target is T1, human PRMT1 (Homo sapiens, UniProt Q99873).
T1 construct: GST-tagged PRMT1; made in house; host or cells: High Five insect cells (baculovirus)
T1 sequence (Q99873 with tags, fused parts or gaps): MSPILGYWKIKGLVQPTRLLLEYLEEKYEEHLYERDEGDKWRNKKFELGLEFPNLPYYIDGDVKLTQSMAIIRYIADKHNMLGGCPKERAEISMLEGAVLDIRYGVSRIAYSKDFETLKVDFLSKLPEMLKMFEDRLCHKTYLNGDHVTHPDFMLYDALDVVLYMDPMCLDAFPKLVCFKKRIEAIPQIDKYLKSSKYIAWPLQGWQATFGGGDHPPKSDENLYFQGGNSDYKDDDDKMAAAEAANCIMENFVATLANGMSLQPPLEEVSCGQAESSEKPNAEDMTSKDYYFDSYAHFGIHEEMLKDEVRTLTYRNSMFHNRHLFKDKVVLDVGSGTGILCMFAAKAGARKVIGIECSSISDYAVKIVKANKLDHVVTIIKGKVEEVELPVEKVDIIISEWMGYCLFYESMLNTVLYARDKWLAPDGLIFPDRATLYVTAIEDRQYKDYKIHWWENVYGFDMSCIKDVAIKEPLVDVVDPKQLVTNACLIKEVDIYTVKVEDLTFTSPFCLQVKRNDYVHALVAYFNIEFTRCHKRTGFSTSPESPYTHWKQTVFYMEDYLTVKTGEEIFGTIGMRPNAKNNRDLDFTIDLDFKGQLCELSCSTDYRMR
Put plainly: PRMT1 Biochemical Assay (3H-SAM Flashplate, peptide substrate). As to conditions: single experiment or average of multiple experiments. The method in brief:
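GST-tagged PRMT1 from baculovirus-infected cells, preincubated with compounds 30 min at room temperature in 20 mM Bicine pH 7.6, 1 mM TCEP, 0.005% BSG, 0.002% Tween 20. Reaction started with ³H-SAM plus biotinylated peptide, stopped with 300 µM cold SAM.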

The mark [2] stands for this setting: RKO cells, 72 hours, mono-methyl arginine, percent activation, single experiment or average of multiple experiments, read-out: EC30 (In Cell Western data, Numerical).

SMILES strings stand for the structures. Like-named read-outs stand apart in the source and are kept apart here.

In the case of `CNCCN(C)Cc1cnn(C)c1-c1ccc(Oc2ccccc2)cc1` [Compound 208], the EC30 (commonly the concentration at which the effect reaches the 30% level) in assay [1] (setting [2]) was determined as 0.696 µM. Also, the IC50 – broadly, the concentration that gives 50% inhibition – against human PRMT1 worked out at 0.00416 µM.
For `CNCCN(C)Cc1c[nH]nc1-c1ccc(OCCCOC)cc1` [Compound 209] the same measures were 0.557 µM and 0.00529 µM.
For `CNCCN(C)Cc1n[nH]cc1-c1ccc(OC(C)C)c(F)c1` [Compound 210] the same measures were 0.268 µM and 0.00879 µM.
Turning to `CC(C)Oc1ccc(-c2c[nH]nc2CN(C)CCN)cc1Cl` [Compound 211], the EC30 in assay [1] (setting [2]) amounted to 0.523 µM. The IC50 at human PRMT1 came to 0.00608 µM.
The like results for `CNCCN(C)Cc1n[nH]cc1-c1ccc(OC(C)C)c(Cl)c1` [Compound 212] were, in that order, 0.238 µM and 0.00646 µM.
The like results for `CCn1cc(CN(C)CCNC)c(-c2ccc(OC(C)C)cc2)n1` [Compound 213] were, in that order, 0.708 µM and 0.0266 µM.
For `CNCCN(C)Cc1cn(C2CCCC2)nc1-c1ccc(OC(C)C)cc1` [Compound 214], in assay [1] (setting [2]), the EC30 came to 2.25 µM. Further, 0.0519 µM corresponded to half-maximal inhibition at human PRMT1 (IC50).
For the molecule `CNCCN(C)Cc1cn(C2CCOC2)nc1-c1ccc(OC(C)C)cc1` (centres unmarked) [Compound 215], the EC30 in assay [1] (setting [2]) was 7.47 µM. Also, at human PRMT1, the IC50 is 0.0822 µM.
The like results for `CNCCN(C)Cc1cnn(C2CCOC2)c1-c1ccc(OC(C)C)cc1` (centres unmarked) [Compound 216] were, in that order, 0.726 µM and 0.0211 µM.
On to `CNCCN(C)Cc1cn(Cc2ccccc2)nc1-c1ccc(OC(C)C)cc1` [Compound 217], for which the EC30 in assay [1] (setting [2]) was 2.15 µM. This molecule returned an IC50 on human PRMT1 of 0.0187 µM.
For `C=CCn1cc(CN(C)CCNC)c(-c2ccc(OC(C)C)cc2)n1` [Compound 218] the same measures were 5.74 µM and 0.0584 µM.
`C=CCn1ncc(CN(C)CCNC)c1-c1ccc(OC(C)C)cc1` [Compound 219]: the EC30 in assay [1] (setting [2]) was 0.919 µM. The same molecule had an IC50 at human PRMT1 of 0.0184 µM.
For `CNCCN(C)Cc1c[nH]nc1-c1ccc(Oc2ccccc2)c(C#N)c1` [Compound 221] the same measures were 0.413 µM and 0.00647 µM.
The like results for `CN(CCN)Cc1c(-c2ccc(C#N)cc2)ncn1C` [Compound 222] were, in that order, greater than 20 µM and 1.26 µM.
In the case of `CN(CCN)Cc1c[nH]nc1-c1ccc(Oc2ccccc2)c(F)c1` [Compound 224, N^1-((3-(3-fluoro-4-phenoxyphenyl)-1H-pyrazol-4-yl)methyl)-N^1-methylethane-1,2-diamine], in assay [1] (read-out: EC30 (In Cell Western data, Numerical, μM)), the EC30 was 0.27 µM. Inhibition at human PRMT1 was half-maximal at 0.00251 µM (IC50).
Regarding `CN(CCN)Cc1c[nH]nc1-c1ccc(Oc2ccc(F)cc2)cc1` [Compound 225, N^1-((3-(4-(4-fluorophenoxy)phenyl)-1H-pyrazol-4-yl)methyl)-N^1-methylethane-1,2-diamine], the concentration for an effect of 30% (EC30) in assay [1] (setting [2]) was 0.688 µM. The same molecule had an IC50 at human PRMT1 of 0.00319 µM.
The like results for `CN(CCN)Cc1c[nH]nc1-c1ccc(Oc2ccccc2)c(C(=O)N(C)C)c1` [Compound 226] were, in that order, greater than 20 µM and 0.0268 µM.
The like results for `CNC(=O)c1cc(-c2n[nH]cc2CN(C)CCN)ccc1Oc1ccccc1` [Compound 227] were, in that order, 15 µM and 0.0243 µM.
For `CNCCN(C)Cc1c[nH]nc1-c1ccc(OCCCOC)c(Cl)c1` [Compound 228] the same measures were 0.279 µM and 0.00555 µM.
